≈ marks a conversion by molar mass, not a printed value.
How the values were obtained:
[1] = tested on: dihydrofolic acid reductase; conditions: in words, prior art; cited from earlier work
[2] = tested on: Human epidermoid carcinoma KB cells; assay: cell growth inhibiting effect on KB cells (MTT, 72 hours); assay type: cell-based; conditions: 37° C., 5% CO2, MTT, absorbance at 590 nm
Procedure: The cell growth inhibiting effect (IC50) on KB cells of the compounds obtained in the following Examples was measured by the following method. (Hereinafter, % means weight %.)
Human epidermoid carcinoma KB cells (1×10^4 /ml) prepared by a conventional method were inoculated in a volume of 0.1 ml for each hole of the 96-microwell plate, and cultured at 37° C. for 24 hours without agitation in an atmosphere of 5% CO2. A 10% solution of one compound obtained by Example in 10% MEM (minimal essential medium, Nissui Pharmaceutical Co. Ltd, Japan) was added thereto, and the cells were cultured again at 37° C. for 72 hours without agitation in an atmosphere of 5% CO2. The culture was removed by using a micropipet, and another 10% solution 0.1 ml of MTT [3-(4,5-dimethylthiazol-2-yl)-2,5-diphenyltetrazolium bromide] (Dojin Laboratories, Japan) in 10% MEM (1.0 mg/ml) was added thereto. The cells were cultured at 37° C. for 4 hours. A 10% SDS [sodium dodecylsulfate](Wako Pure Chimicals, Japan) solution (0.1 ml) was further added, and the cells were cultured at 37° C. for 24 hours. The absorbance at 590 nm was measured, and the concentration of a drug needed for decreasing the number of cells in non-treated control group to a degree of 50% was determined as IC50 value of the compound.

[3] = tested on: glycinamide ribonucleotide transformylase; conditions: in words, Journal of Medicinal Chemistry, 28, 914(1985); cited from earlier work

Row | IC50 [2] | SMILES | inhibition of dihydrofolic acid reductase [1] | inhibition of glycinamide ribonucleotide transformylase [3]
1 |  | CN(Cc1cnc2nc(N)nc(N)c2n1)c1ccc(C(=O)N[C@@H](CCC(=O)O)C(=O)O)cc1 [methotrexate] | inhibit the reduction from dihydrofolic acid to tetrahydrofolic acid by coupling strongly with the dominant enzyme in the second step | 
2 | 0.43 ng/mL (≈ 0.963 nM) | Nc1nc(N)c2c(CCCc3ccc(C(=O)N[C@@H](CCC(=O)O)C(=O)O)s3)c[nH]c2n1 [Example 3, N-[5-(3-(2,4-diamino-7H-pyrrolo[2,3-d]pyrimidin-5-yl)propyl)-2-thenoyl]-L-glutamic acid] |  | 
3 |  | Nc1nc2c(c(=O)[nH]1)C[C@@H](CCc1ccc(C(=O)N[C@@H](CCC(=O)O)C(=O)O)cc1)CN2 [DDATHF] | does not inhibit dihydrofolic acid reductase | main mechanism of which consists in inhibition of glycinamide ribonucleotide transformylase

From US5354754A, “Pyrrolopyrimidines, their production and use” (Takeda Chemical Industries, Ltd., priority 1989, dated 1994)
